{"source": "patent US8609638B2", "about": "“Enzyme inhibiting compounds and methods” (priority 2009, dated 2013)", "target": "T1, IspH (LytB), E-4-hydroxy-3-methyl-but-2-enyl diphosphate reductase (Aquifex aeolicus, UniProt O67625)", "T1 construct": "inferred from Ni-NTA purification with imidazole elution; made in house; host or cells: E. coli BL-21(DE3)", "T1 sequence (O67625 whole entry)": "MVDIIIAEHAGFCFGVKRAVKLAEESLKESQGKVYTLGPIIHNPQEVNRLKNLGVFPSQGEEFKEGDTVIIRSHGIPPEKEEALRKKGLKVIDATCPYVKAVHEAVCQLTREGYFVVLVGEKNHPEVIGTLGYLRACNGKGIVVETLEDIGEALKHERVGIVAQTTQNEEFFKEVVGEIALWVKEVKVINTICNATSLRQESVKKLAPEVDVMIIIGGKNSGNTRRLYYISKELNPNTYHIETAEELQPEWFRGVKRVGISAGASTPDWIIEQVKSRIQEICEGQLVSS", "assay": "biochemical", "parameters": "species or system A. aeolicus", "description": "A. aeolicus IspH Protein Purification. BL-21(DE3) cells expressing IspH from A. aeolicus were grown in LB media supplemented with […] ampicillin at 37° C. until the OD600 reached 0.6. Cells were then induced with 200 μg/L anhydrotetracycline and then grown at 20° C. for 15 hours. Cells were harvested by centrifugation (9000 rpm, 8 min, 4° C.) and kept at −80° C. until use. Cell pellets were resuspended and lysed in B-PER (Thermo Scientific, Rockford, Ill.) protein extraction reagent for 1 hour at 4° C. and then centrifuged at […] at 4° C. for 15 minutes. The supernatant was applied to a Ni-NTA column equilibrated with 5 mM imidazole in pH 8.0 buffer containing 50 mM Tris HCl and 150 mM NaCl. After washing with 20 mM imidazole, protein was eluted with 100 mM imidazole. Fractions were collected and dialyzed in pH 8.0 buffer containing 50 mM Tris HCl, 150 mM NaCl, 5% glycerol, and 1 mM DTT, four times. The purified protein was flash-frozen in liquid nitrogen and stored at −80° C. until use.\nE. coli IspH Protein Purification. BL21 DE3 (Invitrogen) cells harboring an E. coli IspH construct were grown in LB media at 37° C. until the OD600 reached 0.6. Induction was performed with 200 ng/mL anhydrotetracycline at 20° C. for 15 hours. Cells were harvested by centrifugation at 9000 rpm for 8 min and stored at −80° C. Cell pellets were resuspended and lysed in B-PER protein extraction reagent for about 1 hour at 4° C., and then the lysate was centrifuged at […] for 30 minutes. The supernatant was collected and loaded onto an IBA Strep-tag column equilibrated with buffer W (100 mM Tris.HCl, 150 mM NaCl, pH 8.0). After washing with buffer W, protein was eluted using buffer E (buffer W containing 2.5 mM desthiobiotin). Fractions were collected and dialyzed in pH 8.0 buffer containing 50 mM Tris.HCl, 150 mM NaCl, 5% glycerol, and 1 mM DTT, twice. The purified protein was flashfrozen in liquid nitrogen and stored at −80° C. until use.\nProtein Reconstitution. […] Before reconstitution, protein was transferred into a Coy vinyl anaerobic chamber after being degassed on a Schlenk line. The following steps were performed inside the anaerobic chamber with an oxygen level <2 ppm. In a typical reconstitution experiment, 10 mM DTT and ˜0.5 mg of elemental sulfur were added to 3 mL of 0.6 mM protein solution in a pH 8.0 buffer containing 50 mM Tris HCl, 150 mM NaCl, and 5% glycerol. After 1.5 hours under stirring, FeCl3 was slowly added from a 30 mM stock solution to 6 equiv. After 3 hours, an aliquot of the solution was centrifuged and a UV-vis spectrum recorded. If the A410 nm/A280 nm ratio was ≧0.38, the protein was then desalted by passing through a PD10 column. If the ratio was <0.38, more DTT, elemental sulfur, and FeCl3 were added, and the sample was incubated with stirring (for typically ˜2 h) until the 410 nm/280 nm absorption ratio was ˜0.38. The reconstituted protein was then concentrated by ultrafiltration, and the protein concentration was determined by using a Bio-Rad (Hercules, Calif.) protein assay kit.\nIspH inhibition assays. Assays were performed anaerobically at room temperature according to the methods of Altincicek et. al. (FEBS Lett. (2002) 532: 437-440) with the following modifications. […]\nFor enzyme assays, various amounts of the test inhibitor ([…]) were added and the reactions were monitored at 732 nm. […]", "note": "Like-named read-outs stand apart in the source and are kept apart here.", "data": [{"smiles": "O=C(O)CCCCOP(=O)(O)OP(=O)(O)O", "note": "[BPH-988, 5-Pentanoic acid diphosphate]", "values": [{"measurement": "Ki", "setting": "Ki", "value": 51, "unit": "µM"}]}, {"smiles": "C#CCOP(=O)(O)OP(=O)(O)O", "note": "[BPH-1061, Prop-2-ynyl diphosphate]", "values": [{"measurement": "IC50", "setting": "IspH inhibition, inhibitor incubated 10 minutes before 34 μM HMBPP", "value": 6.8, "unit": "µM"}]}, {"smiles": "C#CCCOP(=O)(O)OP(=O)(O)O", "note": "[BPH-1077, But-3-ynyl diphosphate]", "values": [{"measurement": "Ki", "setting": "IspH inhibition, Ki deduced from IC50 by Cheng-Prusoff equation, read-out: Ki", "value": "~0.2", "unit": "µM"}]}, {"smiles": "C#CC[PH](=O)CP(=O)(O)O", "note": "(centres unmarked) [BPH-1084, [[(Prop-2-ynyl)phosphinyl]methyl]phosphonic acid]", "values": [{"measurement": "activity in IspH inhibition (in words)", "setting": "relative to parent or comparator compounds", "value": "decreased activity"}]}, {"smiles": "C#CCO", "note": "[Propargyl alcohol, reference compound]", "values": [{"measurement": "Ki", "setting": "IspH inhibition, read-out: Ki", "value": "> 10000", "unit": "µM"}]}]}
